“Also recorded” adds a separate entry of the source. Where no end group is shown, it is not given here.
How the values were obtained:
Horse blood = experiment: Blood coagulation on hydrogel samples with different peptides, whole horse blood test (Experiment 3); assay type: cell-based; details: citrated horse blood recalcified, 60 min at 37° C., washed three times with PBS, duplicate
Description: Hydrogels were functionalized with 4 different types of antimicrobial peptides (AMPs). The AMPs used were PGLa, LL-37, Temporin B and RRP9W4. As control hydrogels without any attached AMPs were used.
Fresh citrated Horse blood was purchased from Håtunalab AB, Sweden and used to show how if presence of AMPs can induce clotting. In an Eppendorf tube, 1 ml of blood with 0.1 ml of 250 Mm calcium chloride (to reverse the citrate anticoagulant) was added and mixed.
Samples were placed in 24 well plate and conditioned by adding 1 ml PBS to the hydrogels. After 15 minutes the samples were transferred to the Eppendorf tubes containing the blood. The tubes were then placed on shaker and incubated for 60 min at 37° C.
As blank controls, 1 ml of blood was added to an Eppendorf tube without any hydrogels and treated with the same conditions. […] Samples were run in duplicate.

plasmatic coagulation = details: literature, Int. J. Mol. Sci. 2019, 20, 5426; cited from earlier work

Substance | Observations (clot on hydrogel) (Horse blood) | effect on plasmatic coagulation (plasmatic coagulation)
LL-37: human cathelicidin derived LL-37 peptide (LLGDFFRKSKEKIGKEFKRIVQRIKDFLRNLVPRTES; Antibacterial peptide LL-37; UniProt P49913 134-170, looked up) | no clot formation; also recorded: did not form a strong clot; also recorded: No visible clot was observed | not to affect plasmatic coagulation
RRPRPRPRPWWWW-NH2 [RRP9W4, PRELP derived antimicrobial peptide] | large visible clot; also recorded: surprising clotting effect; also recorded: Big clot with firm attachment onto the surface | –

Source: patent US20260007715A1, “WOUND CARE DEVICE” (priority 2019, published 2026)
